Laboratory results: patent US5441983A, “Treatment of infection by enveloped virus with calix(N)arene compounds” (Genelabs Incorporated, priority 1992, dated 1995)
Converted amounts (≈) assume the structure as drawn.

Tests used:
HSV-1 [1] = test: Inactivation of purified HSV-1 by compound, plaque number after serial dilution; settings: 10 μg/ml, duplicate
Method: In a third study, purified HSV-1 virus suspensions were incubated with KY-1 or the sodium salt thereof, or a control solution for 1 hour, then serially diluted to drug concentrations between 10^1 to 10^-4 μg/ml as described in Example 16. The "X" symbol in the table indicates plaques too numerous to count.
Purified HSV-1 was suspended in RPMI-1640 medium (Gibco Laboratories) containing 2% FCS, penicillin and streptomycin. […] The suspensions were incubated for 1 hour at 37° C., then diluted serially at 10 fold dilutions to final drug concentrations of 10, 10^0, 10^-1, 10^-2, 10^-3 and 10^-4 μg/ml drug concentrations The serially diluted particles were then added to Vero cells for two hours, as in Example 6, and the cells examined for plaques 48 hours later.

HIV-HXB = test: Inhibition of syncytia formation, HIV-HXB (HTLV-IIIB); settings: for EC100: Human immunodeficiency virus 1, 18 h, read-out: HIV-HXB ED100, complete inhibition of syncytia formation
HSV-2 = test: Plaque reduction assay, HSV-2, Vero cells; assay type: cell-based, HSV-2 (333)
Method: (§1) used in Table 3 were further tested for activity against HSV infection in
(§2) a plaque reduction assay, as detailed in Example 6. Here Vero cells, after
(§3) overnight incubation, were exposed to serial dilutions of KY compound,
(§4) from 0.625-10 μg/ml, and HSV-1 or HSV-2 virus for two hours. After
(§5) washing to remove drug and extracellular virus, the cells were further
(§6) incubated for 2 days, then stained and counted for plaque formation.
(§7) Percent inhibition was determined by dividing plaques produced by total
(§8) number of plaques in infected, untreated controls. From the concentration
(§9) effect curve of plaque inhibition (expressed as percent of control), the
(§10) concentration of compound required to produce 50% plaque reduction,
(§11) IC50, was determined. The IC50 values for infection by HSV-1 and
(§12) HSV-2 infection is given in the right-hand columns in Table 3. With

HIV-RF-II = test: Inhibition of syncytia formation, HIV-RF-II; settings: for EC100: Human immunodeficiency virus 1, 18 h, read-out: HIV-RF-II ED100, complete inhibition of syncytia formation
Method: Briefly, cells chronically infected with HTLV-IIIB or RF-II HIV strains were incubated in the presence of serial dilutions of the selected KY compound, then further cocultured with indicator cells. The extent of syncytia formation was scored under phase microscopy.
Representative calix(n)arene compounds from Table 2 were tested for inhibition of cytopathic effects in cells infected with one of two HTLV-III strains, HTLV-IIIB and RF-II strains, as described in Example 12, and in the subsection above.
Human CD4^+ indicator cells (VB) and chronically infected H9 cells were maintained in RPMI-1640 medium supplemented with 5% fetal calf serum, 100 Units of penicillin per ml and 100 μg of streptomycin per ml at 37° C. in a humidified incubator containing 7% CO2.
For the fusion assay, serial dilutions between 1:2 and 1:2^8 of a selected KY compound, 1 mg/ml in PBS were made in a 96 well round bottom plate. The diluted KY compound was transferred to a 96 well flat-bottom plate. To each well was added 25 μg chronically infected H9 cells (at 2×10^6, cells/ml), or cells chronically infected with RF-II strain HIV, followed by incubation at 37° C. for 45 minutes. To each well was then added 25 μl VB cells (about 5×10^4 cells), and the cells and virus isolates were cocultured for 18 hours in a humid 5% CO2 atmosphere.

HSV-1 [2] = test: Plaque reduction assay, HSV-1, Vero cells; assay type: cell-based, HSV-1 (Kos-1); settings: plaque reduction, Vero cells
Method: as §1, §2, §3, §4, §5, §6, §7, §8, §9, §10, §11, §12

[3] = complete inhibition of syncytia formation

With `O=S(=O)(O)c1cc2cc(S(=O)(=O)O)c3c(O)c2c(O)c1Cc1c(S(=O)(=O)O)cc2cc(S(=O)(=O)O)c(c(O)c2c1O)Cc1c(S(=O)(=O)O)cc2cc(S(=O)(=O)O)c(c(O)c2c1O)Cc1c(S(=O)(=O)O)cc2cc(S(=O)(=O)O)c(c(O)c2c1O)C3` [KY 217] the “Plaque number, dilution 1” value (HSV-1 [1]; 0.3 pfu/cell) was 2,8, the “Plaque number, dilution 10^1” value (HSV-1 [1]; 0.3 pfu/cell) was 3,3 and the “Plaque number, dilution 1” value (HSV-1 [1]; 3 pfu/cell) was “X,X”. For the same molecule, the “Plaque number, dilution 10^1” value (HSV-1 [1]; 3 pfu/cell) was “X,X”, the “Plaque number, dilution 10^2” value (HSV-1 [1]; 3 pfu/cell) was 6,0 and the “Plaque number, dilution 10^3” value (HSV-1 [1]; 3 pfu/cell) was 5,0.

Molecule `O=S(=O)(O)c1c2c(O)c3c(O)c(c(S(=O)(=O)O)c(O)c3c1O)C(c1ccccc1)c1c(S(=O)(=O)O)c(O)c3c(O)c(S(=O)(=O)O)c(c(O)c3c1O)C(c1ccccc1)c1c(S(=O)(=O)O)c(O)c3c(O)c(S(=O)(=O)O)c(c(O)c3c1O)C(c1ccccc1)c1c(S(=O)(=O)O)c(O)c3c(O)c(S(=O)(=O)O)c(c(O)c3c1O)C2c1ccccc1` (centres unmarked) [KY-85] has an EC100 (HIV-HXB) of 32 µg/mL.

`Oc1c2c(S)cc3cc(S)c(c(O)c13)Cc1c(S)cc3cc(S)c(c(O)c3c1O)Cc1c(S)cc3cc(S)c(c(O)c3c1O)Cc1c(S)cc3cc(S)c(c(O)c3c1O)C2` [KY-171] gave an EC100 (HIV-HXB) of 125 µg/mL, an IC50 (HSV-2; Human alphaherpesvirus 2, Vero) of 3 µg/mL (≈ 3.17 µM) and an EC100 (HIV-RF-II) of 250 µg/mL. It also gave an IC50 (HSV-1 [2]; Human alphaherpesvirus 1, Vero) of 2.5 µg/mL (≈ 2.64 µM).

In the case of `O=S(=O)(Nc1ccccc1)c1cc2cc(S(=O)(=O)Nc3ccccc3)c3c(O)c2c(O)c1Cc1c(S(=O)(=O)Nc2ccccc2)cc2cc(S(=O)(=O)Nc4ccccc4)c(c(O)c2c1O)Cc1c(S(=O)(=O)Nc2ccccc2)cc2cc(S(=O)(=O)Nc4ccccc4)c(c(O)c2c1O)Cc1c(S(=O)(=O)Nc2ccccc2)cc2cc(S(=O)(=O)Nc4ccccc4)c(c(O)c2c1O)C3` [KY-176], the EC100 (HIV-HXB) was 125 µg/mL and the EC100 (HIV-RF-II) was 250 µg/mL.

In the case of `O=S(=O)(O)c1c2c(O)c3c(O)c(c(S(=O)(=O)O)c(Br)c3c1Br)C(C(Br)CBr)c1c(S(=O)(=O)O)c(Br)c3c(Br)c(S(=O)(=O)O)c(c(O)c3c1O)C(C(Br)CBr)c1c(S(=O)(=O)O)c(Br)c3c(Br)c(S(=O)(=O)O)c(c(O)c3c1O)C(C(Br)CBr)c1c(S(=O)(=O)O)c(Br)c3c(Br)c(S(=O)(=O)O)c(c(O)c3c1O)C2C(Br)CBr` (centres unmarked) [KY-193], the EC100 (HIV-HXB) was 63 µg/mL and the EC100 (HIV-RF-II) was 500 µg/mL.

`CC(=O)Oc1c2c(S(=O)(=O)O)cc3cc(S(=O)(=O)O)c(c(OC(C)=O)c13)Cc1c(S(=O)(=O)O)cc3cc(S(=O)(=O)O)c(c(OC(C)=O)c3c1OC(C)=O)Cc1c(S(=O)(=O)O)cc3cc(S(=O)(=O)O)c(c(OC(C)=O)c3c1OC(C)=O)Cc1c(S(=O)(=O)O)cc3cc(S(=O)(=O)O)c(c(OC(C)=O)c3c1OC(C)=O)C2` [KY-270] showed an EC100 (HIV-HXB) of 16 µg/mL and an EC100 (HIV-RF-II) of 32 µg/mL.

With `CC(=O)Oc1c2c(S(=O)(=O)O)cc3cc(S(=O)(=O)O)c(c(OC(C)=O)c13)C(C(=O)O)c1c(S(=O)(=O)O)cc3cc(S(=O)(=O)O)c(c(OC(C)=O)c3c1OC(C)=O)C(C(=O)O)c1c(S(=O)(=O)O)cc3cc(S(=O)(=O)O)c(c(OC(C)=O)c3c1OC(C)=O)C(C(=O)O)c1c(S(=O)(=O)O)cc3cc(S(=O)(=O)O)c(c(OC(C)=O)c3c1OC(C)=O)C2C(=O)O` (centres unmarked) [KY-272] the EC100 (HIV-HXB) was 63 µg/mL and the EC100 (HIV-RF-II) was 250 µg/mL.

With `CCC(=O)Oc1c2c(S(=O)(=O)O)cc3cc(S(=O)(=O)O)c(c(OC(=O)CC)c13)Cc1c(S(=O)(=O)O)cc3cc(S(=O)(=O)O)c(c(OC(=O)CC)c3c1OC(=O)CC)Cc1c(S(=O)(=O)O)cc3cc(S(=O)(=O)O)c(c(OC(=O)CC)c3c1OC(=O)CC)Cc1c(S(=O)(=O)O)cc3cc(S(=O)(=O)O)c(c(OC(=O)CC)c3c1OC(=O)CC)C2` [KY-276] the EC100 (HIV-HXB) was 16 µg/mL and the EC100 (HIV-RF-II) was 32 µg/mL.

For `COc1c2c(S(=O)(=O)O)cc3cc(S(=O)(=O)O)c(c(OC)c13)Cc1c(S(=O)(=O)O)cc3cc(S(=O)(=O)O)c(c(OC)c3c1OC)Cc1c(S(=O)(=O)O)cc3cc(S(=O)(=O)O)c(c(OC)c3c1OC)Cc1c(S(=O)(=O)O)cc3cc(S(=O)(=O)O)c(c(OC)c3c1OC)C2` [KY-280], the “HIV-HXB ED100” value (HIV-HXB; [3]) was 16, the “HSV-2 IC50” value (HSV-2) was 1 µg/mL and the “HIV-RF-II ED100” value (HIV-RF-II; [3]) was 32. For the same molecule, the “HSV-1 IC50” value (HSV-1 [2]) was 1.1 µg/mL.

`CCCC(=O)Oc1c2c(S(=O)(=O)O)cc3cc(S(=O)(=O)O)c(c(OC(=O)CCC)c13)Cc1c(S(=O)(=O)O)cc3cc(S(=O)(=O)O)c(c(OC(=O)CCC)c3c1OC(=O)CCC)Cc1c(S(=O)(=O)O)cc3cc(S(=O)(=O)O)c(c(OC(=O)CCC)c3c1OC(=O)CCC)Cc1c(S(=O)(=O)O)cc3cc(S(=O)(=O)O)c(c(OC(=O)CCC)c3c1OC(=O)CCC)C2` [KY-281] showed an EC100 (HIV-HXB) of 16 µg/mL and an EC100 (HIV-RF-II) of 32 µg/mL.

For `COc1c2c(S(=O)(=O)O)cc3cc(S(=O)(=O)O)c(c(OC)c13)C(C(=O)O)c1c(S(=O)(=O)O)cc3cc(S(=O)(=O)O)c(c(OC)c3c1OC)C(C(=O)O)c1c(S(=O)(=O)O)cc3cc(S(=O)(=O)O)c(c(OC)c3c1OC)C(C(=O)O)c1c(S(=O)(=O)O)cc3cc(S(=O)(=O)O)c(c(OC)c3c1OC)C2C(=O)O` (centres unmarked) [KY-284], the EC100 (HIV-HXB) was 16 µg/mL and the EC100 (HIV-RF-II) was 32 µg/mL.
